Laboratory results taken from PubChem BioAssay (NCI).
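Values below derive from 48-hour exposures of cells grown in 96-well plates, with endpoints linearly interpolated between the two concentrations bracketing the appropriate inhibition level. At the GI50, growth is halved. TGI is the concentration that stops growth completely.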

How the values were obtained:
Assay in all cases: NCI-60 cell line screen, 48 h
[1] = tested on: 786-0 renal
[2] = tested on: A498 renal
[3] = tested on: A549 NSCLC
[4] = tested on: ACHN renal
[5] = tested on: BT-549 breast
[6] = tested on: CAKI-1 renal
[7] = tested on: CCRF-CEM leukemia
[8] = tested on: COLO 205 colon
[9] = tested on: EKVX NSCLC
[10] = tested on: HCC-2998 colon
[11] = tested on: HCT-116 colon
[12] = tested on: HCT-15 colon
[13] = tested on: HL-60(TB) leukemia
[14] = tested on: HOP-62 NSCLC
[15] = tested on: HOP-92 NSCLC
[16] = tested on: HS 578T breast
[17] = tested on: HT29 colon
[18] = tested on: IGROV1 ovarian
[19] = tested on: K-562 leukemia
[20] = tested on: KM12 colon
[21] = tested on: LOX IMVI melanoma
[22] = tested on: M14 melanoma
[23] = tested on: MALME-3M melanoma
[24] = tested on: MCF7 breast
[25] = tested on: MDA-MB-231 breast
[26] = tested on: MDA-MB-435
[27] = tested on: MOLT-4 leukemia
[28] = tested on: NCI-H226 lung
[29] = tested on: NCI-H23 lung
[30] = tested on: NCI-H460 lung
[31] = tested on: NCI-H522 lung
[32] = tested on: NCI/ADR-RES ovarian
[33] = tested on: OVCAR-3 ovarian
[34] = tested on: OVCAR-4 ovarian
[35] = tested on: OVCAR-5 ovarian
[36] = tested on: OVCAR-8 ovarian
[37] = tested on: PC-3 prostate
[38] = tested on: RPMI-8226 leukemia
[39] = tested on: RXF 393 renal
[40] = tested on: SF-268 CNS
[41] = tested on: SF-295 CNS
[42] = tested on: SF-539 CNS
[43] = tested on: SK-MEL-2 melanoma
[44] = tested on: SK-MEL-28 melanoma
[45] = tested on: SK-MEL-5 melanoma
[46] = tested on: SK-OV-3 ovarian
[47] = tested on: SN12C renal
[48] = tested on: SNB-19 CNS
[49] = tested on: SNB-75 CNS
[50] = tested on: SR leukemia
[51] = tested on: SW-620 colon
[52] = tested on: TK-10 renal
[53] = tested on: U251 CNS
[54] = tested on: UACC-257 melanoma
[55] = tested on: UACC-62 melanoma
[56] = tested on: UO-31 renal

## C=C1C(=O)O[C@H]2[C@H]1CC/C(COC(=O)c1cc3cc(Cl)ccc3[nH]1)=C\CC[C@@]1(C)O[C@@H]21
[1]
  GI50: 1510 nM
  TGI: 2910 nM
[2]
  GI50: 2650 nM
  TGI: 9170 nM
[3]
  GI50: 1690 nM
  TGI: 3310 nM
[4]
  GI50: 1350 nM
  TGI: 2750 nM
[5]
  GI50: 1310 nM
  TGI: 3200 nM
[6]
  GI50: 1190 nM
  TGI: 2420 nM
[7]
  GI50: 394 nM
  TGI: 1610 nM
[8]
  GI50: 1720 nM
  TGI: 3700 nM
[9]
  GI50: 1400 nM
  TGI: 2910 nM
[10]
  GI50: 1400 nM
  TGI: 2850 nM
[11]
  GI50: 707 nM
  TGI: 2060 nM
[12]
  GI50: 1000 nM
  TGI: 2430 nM
[13]
  GI50: 440 nM
  TGI: 2300 nM
[14]
  GI50: 2220 nM
  TGI: 5880 nM
[15]
  GI50: 1250 nM
  TGI: 2760 nM
[16]
  GI50: 2250 nM
  TGI: 6480 nM
[17]
  GI50: 1330 nM
  TGI: 3120 nM
[18]
  GI50: 1380 nM
  TGI: 2910 nM
[19]
  GI50: 1140 nM
  TGI: 4140 nM
[20]
  GI50: 2150 nM
  TGI: 6920 nM
[21]
  GI50: 813 nM
  TGI: 2080 nM
[22]
  GI50: 1470 nM
  TGI: 3400 nM
[23]
  GI50: 1630 nM
  TGI: 3330 nM
[24]
  GI50: 860 nM
  TGI: 2320 nM
[25]
  GI50: 1320 nM
  TGI: 2850 nM
[26]
  GI50: 1240 nM
  TGI: 2510 nM
[27]
  GI50: 557 nM
  TGI: 3370 nM
[28]
  GI50: 1800 nM
  TGI: 3720 nM
[29]
  GI50: 1630 nM
  TGI: 3680 nM
[30]
  GI50: 1720 nM
  TGI: 3530 nM
[31]
  GI50: 1590 nM
  TGI: 3920 nM
[32]
  GI50: 1450 nM
  TGI: 3780 nM
[33]
  GI50: 1250 nM
  TGI: 2700 nM
[34]
  GI50: 1330 nM
  TGI: 2720 nM
[35]
  GI50: 1530 nM
  TGI: 3280 nM
[36]
  GI50: 1340 nM
  TGI: 3320 nM
[37]
  GI50: 2420 nM
  TGI: 6580 nM
[38]
  GI50: 810 nM
  TGI: 3280 nM
[39]
  GI50: 1380 nM
  TGI: 2720 nM
[40]
  GI50: 1440 nM
  TGI: 2860 nM
[41]
  GI50: 3180 nM
  TGI: 16500 nM
[42]
  GI50: 1440 nM
  TGI: 2920 nM
[43]
  GI50: 1730 nM
  TGI: 3590 nM
[44]
  GI50: 1580 nM
  TGI: 3100 nM
[45]
  GI50: 1910 nM
  TGI: 3540 nM
[46]
  GI50: 10200 nM
  TGI: 21800 nM
[47]
  GI50: 1700 nM
  TGI: 3570 nM
[48]
  GI50: 2910 nM
  TGI: 10100 nM
[49]
  GI50: 576 nM
  TGI: 2070 nM
[50]
  GI50: 776 nM
  TGI: 3610 nM
[51]
  GI50: 1400 nM
  TGI: 3370 nM
[52]
  GI50: 1750 nM
  TGI: 3120 nM
[53]
  GI50: 1750 nM
  TGI: 3320 nM
[54]
  GI50: 1700 nM
  TGI: 3200 nM
[55]
  GI50: 1670 nM
  TGI: 3270 nM
[56]
  GI50: 1210 nM
  TGI: 2560 nM
